Data on four molecules can be found in PMC8785688 (Bioorganic & medicinal chemistry, 2021).

Data set [1] deals with T1, h15-LOX-2 (Homo sapiens, UniProt O15296).
T1 sequence (O15296 1-676): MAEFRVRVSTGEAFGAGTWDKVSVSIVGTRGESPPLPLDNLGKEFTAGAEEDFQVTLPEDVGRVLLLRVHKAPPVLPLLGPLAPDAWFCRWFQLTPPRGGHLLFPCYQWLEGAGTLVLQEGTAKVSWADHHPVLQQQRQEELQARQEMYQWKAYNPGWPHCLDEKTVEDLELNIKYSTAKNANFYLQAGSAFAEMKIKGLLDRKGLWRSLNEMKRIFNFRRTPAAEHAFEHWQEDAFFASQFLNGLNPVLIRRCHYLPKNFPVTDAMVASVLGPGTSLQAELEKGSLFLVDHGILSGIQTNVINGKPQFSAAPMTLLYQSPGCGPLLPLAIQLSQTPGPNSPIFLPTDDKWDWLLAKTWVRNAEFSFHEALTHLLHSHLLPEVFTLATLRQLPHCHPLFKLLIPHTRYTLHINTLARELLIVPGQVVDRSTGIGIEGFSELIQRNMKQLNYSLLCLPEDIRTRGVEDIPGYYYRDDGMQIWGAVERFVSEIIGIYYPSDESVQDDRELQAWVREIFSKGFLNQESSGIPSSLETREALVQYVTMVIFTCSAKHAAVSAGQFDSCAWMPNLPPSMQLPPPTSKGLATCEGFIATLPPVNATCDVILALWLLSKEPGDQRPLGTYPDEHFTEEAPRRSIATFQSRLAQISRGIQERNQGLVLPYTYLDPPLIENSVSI
In words: Lipoxygenase UV-Vis-based IC50 assay, h15-LOX-2. The format is biochemical.

In data set [2] the target is T1, h15-LOX-2. In words: Hydrogen/deuterium exchange mass spectrometry of h15-LOX-2. The conditions noted are these: 20 μM inhibitor; peptides 173-184 and 184-191 (helix α2); short time scales (< 10 min).
In data set [3] the target is T1, h15-LOX-2. Description: Steady-state inhibition kinetics of h15-LOX-2. The conditions noted are these: for mode of inhibition: against h15-LOX-2. The class given is biochemical.
In data set [4] the target is T1, h15-LOX-2. Description: Study of inhibitors as substrates of h15-LOX-2. To be noted: 20 μM inhibitor, absence of AA; UV-Vis and RP-HPLC. The format is biochemical.
Data set [5] deals with the molecule itself. Description: SEC.

On to `FC(F)(F)c1ccc(CSc2nccn2-c2ccccc2)cc1` [Inhibitor 327069], for which, in data set [1] (ratio of IC50 values), the “enhanced inhibition of 327069 over 536924” value is given as approximately 10 fold. The “change in H/D exchange vs h15-LOX-2 alone” value in data set [2] is not above 20%. Also, in data set [3], the Ki is 1.2 µM and the mode of inhibition entry was “mixed-type”. In data set [4], the “substrate activity with h15-LOX-2” value is “not substrates”.

`Fc1ccc(CSc2nccn2-c2ccccc2)cc1` [analog 2, 2-((4-fluorobenzyl)thio)-1-phenyl-1H-imidazole] yielded an IC50 in data set [1] of more than 100 µM.

Regarding `CCc1ccc(CSc2nccn2-c2ccccc2)cc1` [Inhibitor 327206], in data set [3], the mode of inhibition result was “mixed-type”. In data set [4], the “substrate activity with h15-LOX-2” value is “not substrates”.

B1: loop mutant (LM) of human epithelial 15-lipoxygenase-2, Mn2+-substituted (enzyme, UniProt O15296 1-676, looked up)
chain: MAEFRVRVSTGEAFGAGTWDKVSVSIVGTRGESPPLPLDNLGKEFTAGAEEDFQVTLPEDVGRVLLLRVHKAGPLAPDAWFCRWFQLTPPRGGHLLFPCYQWLEGAGTLVLQEGTAKVSWADHHPVLQQQRQEELQARQEMYQWKAYNPGWPHCLDEKTVEDLELNIKYSTAKNANFYLQAGSAFAEMKIKGLLDRKGLWRSLNEMKRIFNFRRTPAAEHAFEHWQEDAFFASQFLNGLNPVLIRRCHYLPKNFPVTDAMVASVLGPGTSLQAELEKGSLFLVDHGILSGIQTNVINGKPQFSAAPMTLLYQSPGCGPLLPLAIQLSQTPGPNSPIFLPTDDKWDWLLAKTWVRNAEFSFHEALTHLLHSHLLPEVFTLATLRQLPHCHPLFKLLIPHTRYTLHINTLARELLIVPGQVVDRSTGIGIEGFSELIQRNMKQLNYSLLCLPEDIRTRGVEDIPGYYYRDDGMQIWGAVERFVSEIIGIYYPSDESVQDDRELQAWVREIFSKGFLNQESSGIPSSLETREALVQYVTMVIFTCSAKHAAVSAGQFDSCAWMPNLPPSMQLPPPTSKGLATCEGFIATLPPVNATCDVILALWLLSKEPGDQRPLGTYPDEHFTEEAPRRSIATFQSRLAQISRGIQERNQGLVLPYTYLDPPLIENSVSI
In the case of B1, in data set [5], the “stoichiometry N” value came out at 2.
